In patent US7531567B2, “Use of a medicament containing an effector of the glutathione metabolism together with α-lipoic acid in kidney replacement therapy” (Serumwerk Bernburg AG, priority 2001, dated 2009):

Key:
Format in all cases: cell-based, human
peritoneal macrophages [1] = assay: membrane-bound thiol expression of peritoneal macrophages; details: FIG. 5
Experimental: Peritoneal macrophages were isolated from the effluate of the peritoneal dialysis of high-grade renally insufficient patients, taken up in cell culture medium and incubated in a gas incubator at 37° C., a relative humidity of 98% and 7.5% relative air-CO2 content. In order to test the influence of the combinations used according to the invention on the thiol status of the peritoneal macrophages, in each case a fraction was treated with α-lipoic acid, the effector of the glutathione metabolism ambroxole or the ACE inhibitor enalapril or with the combination of α-lipoic acid/ambroxole or α-lipoic acid/enalapril, while in each case a further fraction was used as an untreated control. The determination of the cellular thiol status was carried out by means of the measuring method described under 1. The membrane expression of thiols was determined by means of the mean fluorescence intensity (mfi) of the sample (3000 cells/measurement) after coupling to a chloromethylfluorochrome derivative. In FIG. 5, the action of the combination of α-lipoic acid and enalapril (FIG. 5b) on the membrane-bound thiol expression of peritoneal macrophages in the experimental setup described above is presented. The membrane expression of thiols was determined by means of the mean fluorescence intensity (mfi) of the sample (3000 cells/measurement) after coupling to a chloro-methylfluorochrome derivative.

peripheral immune cells = assay: membrane-bound thiol expression of peripheral immune cells (CMTMR flow cytofluorimetry); details: α-lipoic acid 50 μM, captopril 10 μM, combination at the same concentrations
Experimental: Peripheral immune cells of healthy donors (n=9) were isolated from the peripheral blood by means of density gradient centrifugation. Lymphocytes having a donor-dependent relative proportion of about 90% in this case normally represent the main fraction of the resulting total population of mononuclear cells. 10% of the mononuclear cells are represented by monocytes. The mononuclear cells obtained were taken up in special cell culture media and incubated in a gas incubator at 37° C., a relative humidity of 98% and 5% relative air-CO2 content. The metabolism of the primarily resting immune cells was activated by means of mitogenic stimulation (0.5 μg/ml of phytohemagglutinin). In order to test the influence of the combinations used according to the invention on the thiol status of thiol-deficient immune cells, these were artificially thiol-depleted. This was carried out by culturing in thiol-deficient media (RPMI 1603) according to tested procedures. Comparison cultures using whole media (RPMI 1640) served for the definition of the best possible normal value under culture conditions. The expression of membrane-bound thiol groups was likewise determined by flow cytofluorimetry. In this connection, chloromethyltetramethylrhodamine (CMTMR) was employed as a thiol conjugate under the conditions of a blocked membrane potential and of an inhibited diffusion capacity of the cells. The fluorescence intensity of the bound fluorochrome molecules on the cell membrane is in this case in turn proportional to the amount of the thiol groups on the cell surface.

peritoneal macrophages [2] = assay: degree of differentiation and activation of peritoneal macrophages (CD15, CD11c, CD69, CD71); details: incubation for 6 days, control = 1.0, α-lipoic acid 50 μM, ambroxole 10 μM, enalapril 5 μM, captopril 10 μM
Experimental: Peritoneal macrophages were isolated from patients under kidney replacement therapy according to the processes described under example 3 and cultured in the presence of the combinations of α-lipoic acid and effectors of the glutathione metabolism named according to the invention. After incubation for 6 days, the degree of differentiation of the peritoneal macrophages was determined cytofluorometrically by means of the expression of the cell surface antigens CD15 and CD11c, and the degree of cellular activation by means of the coexpression of the activation antigens CD69 on CD15-positive cells and CD71 on CD11c-positive cells.

peritoneal macrophages [3] = assay: stability of intracellular thiol restitution in peritoneal macrophages in the dialysis model
Experimental: The peritoneal macrophages described under example 3, which were thiol-restituted by means of the combinations used according to the invention, were removed from this test system after 6 days and cultured in a dialysis model over a period of 14 days. For this, the peritoneal macrophages were adapted to mobile collagen IV-coated matrices and brought into contact with conventional dialysis solution 3 times daily for 60 minutes each. This model served here for the induction of a combined […]/osmotic stress. In FIG. 6, the action of the combination of α-lipoic acid and ambroxole (FIG. 6a), and α-lipoic acid and enalapril (FIG. 6b) on the intracellular thiol expression of the peritoneal macrophages in the time kinetics is presented. The membrane expression of thiols was determined by means of the mean fluorescence intensity (mfi) of the sample (3000 cells/measurement) after coupling to a chloro-methylfluorochrome derivative.

Question: Which results are given for `O=C(O)CCCCC1CCSS1` (stereo not drawn) [α-lipoic acid]?
Answer: effect on the membrane-bound thiol expression of peritoneal macrophages (in words) (peritoneal macrophages [1]): very marked effect of the sole administration of α-lipoic acid is to be noted here, which, however, is cancelled out again after 4 days of treatment; Membrane-bound thiol expression (peripheral immune cells; culture period 0 d): 2.37 ± 0.45 mfiBeads/Ratio; Membrane-bound thiol expression (peripheral immune cells; culture period 1 d): 2.65 ± 0.39 mfiBeads/Ratio; Membrane-bound thiol expression (peripheral immune cells; culture period 2 d): 2.43 ± 0.52 mfiBeads/Ratio; Membrane-bound thiol expression (peripheral immune cells; culture period 3 d): 2.31 ± 0.36 mfiBeads/Ratio; Membrane-bound thiol expression (peripheral immune cells; culture period 4 d): 2.26 ± 0.20 mfiBeads/Ratio; Membrane-bound thiol expression (peripheral immune cells; culture period 6 d): 2.19 ± 0.13 mfiBeads/Ratio; Membrane-bound thiol expression (peripheral immune cells; culture period 8 d): 1.93 ± 0.20 mfiBeads/Ratio; Membrane-bound thiol expression (peripheral immune cells; culture period 10 d): 1.63 ± 0.16 mfiBeads/Ratio; Membrane-bound thiol expression (peripheral immune cells; culture period 12 d): 1.32 ± 0.21 mfiBeads/Ratio; Membrane-bound thiol expression (peripheral immune cells; culture period 14 d): 1.34 ± 0.20 mfiBeads/Ratio; CD15/69 (peritoneal macrophages [2]; CD69 on CD15-positive cells): 1.09 ± 0.08; CD11c/71 (peritoneal macrophages [2]; CD71 on CD11c-positive cells): 1.08 ± 0.09; CD11c (peritoneal macrophages [2]): 1.21 ± 0.11; CD15 (peritoneal macrophages [2]): 1.18 ± 0.16; action relative to the action of the combinations (peritoneal macrophages [3]; after about 4 days in the dialysis model): approximately 50%; intracellular thiol status in the dialysis model (in words) (peritoneal macrophages [3]; dialysis model over 14 days, FIG. 6): only short-lasting
